This is an account of results in ChEMBL document CHEMBL1150851, “Naphthopyranone glycosides from Paepalanthus microphyllus” (J Nat Prod, 2001).

In general, EC50 refers to the midpoint of the concentration-response curve.

Values after ≈ are worked out from the molar mass of the structure shown. Active and inactive are the calls of the source. The calls are words filed in the database; no cut-off is given here.

Data set [1] relates to Human immunodeficiency virus 1. Put plainly: Antiviral activity against HIV1 MN infected in human C8166 cells assessed as reduction in antigen gp120 production by ELISA. It counts as functional, organism-based. To be noted: Human immunodeficiency virus 1, MN. Background: An ELISA detects its analyte on a solid surface through an enzyme-linked reagent.
Data set [2] can be described thus: Cytotoxicity against uninfected human C8166 cells by XTT-formazan method. It counts as cell-based. The note with it: read-out: TC50 (the source's name). A general note: Formazan colour is commonly taken as a measure of viable cells.
The subject of data set [3] is Human immunodeficiency virus 1. The experiment in a line: Antiviral activity against HIV1 3B infected in human C8166 cells assessed as syncytia formation at 5 fold EC50 preincubated for 5 to 6 days before infection measured after 2 days postinfection by XTT-formazan method. Format: functional, organism-based.
Data set [4] in a line: Selectivity index, ratio of TC50 for uninfected human C8166 cells to EC50 for HIV1 MN infected in human C8166 cells. The note with it: uninfected C8166 cells and HIV-1 MN-infected C8166 cells, read-out: Selectivity Index. Format: toxicity, cell-based.

`Cc1cn([C@H]2C[C@H](N=[N+]=[N-])[C@@H](CO)O2)c(=O)[nH]c1=O` [ZIDOVUDINE]: the EC50 in data set [1] was 0.016 µg/mL (≈ 0.0599 µM). Besides, the CC50 in data set [2] is more than 1000 µg/mL.
`COc1cc(O[C@@H]2O[C@H](CO[C@@H]3OC[C@H](O)[C@H](O)[C@H]3O)[C@@H](O)[C@H](O)[C@H]2O)c2c(O)c3c(=O)oc(C)cc3c(OC)c2c1`: in data set [1], the EC50 came to 18 µg/mL (≈ 30.2 µM). The CC50 in data set [2] amounted to 160 µg/mL (≈ 268 µM). Also, the result in data set [3] was inactive. In data set [4], the selectivity ratio amounted to 8.9.
For `COc1cc(O[C@@H]2O[C@H](CO[C@@H]3O[C@@H](C)[C@H](O)[C@@H](O)[C@H]3O)[C@@H](O)[C@H](O)[C@H]2O)c2c(O)c3c(=O)oc(C)cc3c(OC)c2c1`, in that order: 30 µg/mL (≈ 49.1 µM), 100 µg/mL (≈ 164 µM), “inactive” and 3.3.
For `COc1cc(O[C@@H]2O[C@H](CO[C@@H]3O[C@H](CO)[C@@H](O)[C@H](O)[C@H]3O)[C@@H](O)[C@H](O)[C@H]2O)c2c(O)c3c(=O)oc(C)cc3c(OC)c2c1`, in that order: 75 µg/mL (≈ 120 µM), 150 µg/mL (≈ 239 µM), “inactive” and 2.
On to `COc1cc(O[C@@H]2O[C@H](CO)[C@@H](O)[C@H](O)[C@H]2O)c2c(O)c3c(=O)oc(C)cc3c(OC)c2c1`, for which, in data set [1], the EC50 amounted to 38 µg/mL (≈ 81.8 µM). The CC50 in data set [2] was 160 µg/mL (≈ 345 µM). In addition, the result in data set [3] was inactive. The selectivity ratio in data set [4] is 4.2.
